{"source": "patent US9469652B2", "about": "“ERK inhibitors” (Eli Lilly and Company, priority 2014, dated 2016)", "key": {"[1]": {"system": "human non-small cell lung cancer cells NCI-H441 (KRAS_G12V)", "experiment": "In vivo combination study, NCI-H441 NSCLC xenograft model", "details": "single agent", "description": "(§1) More specifically, the compound of Example 1 is tested in combination with either the pan-RAF inhibitor compound or the CDK4/6 inhibitor compound in HCT116, a KRAS mutant colorectal cancer xenograft model. Also, the compound of Example 1 is tested in combination with either the CDK4/6 inhibitor compound or DC101 in NCI-H441, A549, and NCI-H2122, KRAS mutant non-small cell lung cancer (NSCLC) xenograft models.\n(§2) Combination efficacy is also tested in three KRAS mutant NSCLC xenograft models including A549 (KRAS_G12S) in SCID mice as well as NCI-H441 (KRAS_G12V) and NCI-H2122 (KRAS_G12C) in athymic nude mice. Expand human non-small cell lung cancer cells NCI-H441 (ATCC, #CRL-5807) and NCI-H2122 (ATCC, #CRL-5985) in culture, harvest and inject 5×10e^6 cells in 200 μL of 1:1 HBSS+matrigel solution subcutaneously on to the rear right flank of female athymic nude mice (20-22 gm, Harlan Laboratories). Expand human non-small cell lung cancer cells A549 (ATCC, #CC1-185) in culture, harvest and inject 5×10e^6 cells in 200 μL of 1:1 HBSS+matrigel solution subcutaneously on to the rear right flank of female CB-17 SCID mice (18-20 gm, Taconic Farms). For all cell lines, measure tumor growth and body weight twice per week beginning the seventh day after the implantation. When average tumor sizes reach 200-300 mm^3, randomize animals and group into groups of five to seven animals. Prepare test compound in an appropriate vehicle (see below) and administer by oral gavage (compound of Example 1 and the CDK4/6 inhibitor compound) or intraperitoneally (DC101) for 21 to 28 days. Tumor response is determined by tumor volume measurement performed twice a week during the course of treatment. Vehicle used in these studies is 1% HEC/0.25% Tween® 80/0.05% Antifoam. The compound of Example 1 is formulated in 1% HEC/0.25% Tween® 80/0.05% Antifoam and the CDK4/6 inhibitor compound is formulated in 1% HEC in 25 mM sodium phosphate buffer, pH 2. […] In the same NCI-H441 xenograft model, DC101 in phosphate buffer is also administered intraperitoneally twice per week (BIW) as a single agent or in combination with the compound of Example 1, 50 mpk, QD for 28 days."}, "[2]": {"system": "human non-small cell lung cancer cells NCI-H2122 (KRAS_G12C)", "experiment": "In vivo combination study, NCI-H2122 NSCLC xenograft model", "set-up": "species or system female athymic nude mice", "details": "single agent", "description": "as §1, §2"}, "[3]": {"system": "human non-small cell lung cancer cells A549 (KRAS_G12S)", "experiment": "In vivo combination study, A549 NSCLC xenograft model", "set-up": "species or system female CB-17 SCID mice", "details": "single agent", "description": "as §1, §2"}, "ERK2": {"target": "T1, ERK2 (Homo sapiens, UniProt P28482)", "T1 construct": "purchased Invitrogen PV3595B", "T1 sequence (P28482 whole entry)": "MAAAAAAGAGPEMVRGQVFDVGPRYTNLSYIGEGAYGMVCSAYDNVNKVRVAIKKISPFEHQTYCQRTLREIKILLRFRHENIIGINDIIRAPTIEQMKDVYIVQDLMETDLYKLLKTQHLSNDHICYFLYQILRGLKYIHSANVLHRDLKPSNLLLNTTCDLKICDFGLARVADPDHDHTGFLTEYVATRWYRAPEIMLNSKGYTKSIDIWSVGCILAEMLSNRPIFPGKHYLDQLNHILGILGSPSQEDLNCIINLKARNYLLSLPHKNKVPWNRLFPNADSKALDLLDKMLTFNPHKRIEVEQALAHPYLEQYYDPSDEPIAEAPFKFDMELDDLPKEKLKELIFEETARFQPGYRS", "experiment": "ERK2 Kinase Assay (TR-FRET)", "type": "biochemical", "details": "Abs_IC50, ATP 10 μM, GFP-ATF2 substrate; ±0.24, n=7", "description": "The purpose of this assay is to measure the ability of compounds to inhibit ERK2 kinase activity. Perform the ERK2 kinase assay in vitro using a TR-FRET assay. Start all reactions (12.5 μL) by adding 5 μL of ERK2 enzyme (Invitrogen, #PV3595B, final conc 50 ng/mL) plus substrate GFP-ATF2 (Invitrogen, #PV4445, final conc 0.2 μM), 5 μL of ATP solution (Invitrogen, #PV3227, final conc 10 μM) prepared in kinase buffer (50 mM Hepes pH 7.4, 5 mM MgCl2, 0.1 mM EGTA, 0.01% Triton X-100, 1 mM DTT) and 2.5 μL of testing compounds in DMSO solution (final 4%, v/v) in a 384-well PROXIPLATE™ (Perkin Elmer, #GRN6260). Incubate reactions at room temperature for 60 minutes. Stop reactions by addition of 12.5 μL of stop buffer (10 mM EDTA, 2 nM Tb-anti-pATF2 (pThr71) antibody, Invitrogen, #PV4448) in TR-FRET dilution buffer (Invitrogen, #PV3574). Incubate the plates at room temperature for an additional 60 minutes and read ON ENVISION® (PerkinElmer) plate reader at the excitation wavelength of 340 nm Calculate a TR-FRET ratio by dividing the GFP acceptor emission signal (at 520 nm) by the Tb donor emission signal (at 495 nm). Calculate percent inhibition using compound wells relative to on-plate Max (DMSO control) and Min (No enzyme added) control wells TR-FRET ratio data {% inhibition=100−[(test compound−median Min)/(median Max−median Min)×100]}. […]"}}}
{"smiles": "Cn1nccc1Nc1nccc(-c2cc3c(s2)C(C)(C)N(CCN2CCOCC2)C3=O)n1", "note": "[Example 1, 6,6-Dimethyl-2-{2-[(1-methyl-1H-pyrazol-5-yl)amino]pyrimidin-4-yl}-5-[2-(morpholin-4-yl)ethyl]-5,6-dihydro-4H-thieno[2,3-c]pyrrol-4-one]", "values": [{"measurement": "Regression %", "setting": "[1]; 50 mg/kg QD, oral, 28 days", "result": 1, "unit": "%"}, {"measurement": "tumor growth inhibition", "setting": "[1]; 50 mpk", "result": 101, "unit": "%"}, {"measurement": "Delta T/C %", "setting": "[2]; 50 mg/kg QD, oral, 28 days", "result": 59, "unit": "%"}, {"measurement": "tumor growth inhibition", "setting": "[2]; 50 mpk", "result": 41, "unit": "%"}, {"measurement": "Delta T/C %", "setting": "[3]; 50 mg/kg QD, oral, 28 days", "result": 9, "unit": "%"}, {"measurement": "tumor growth inhibition", "setting": "[3]; 50 mpk", "result": 91, "unit": "%"}, {"measurement": "IC50", "setting": "ERK2", "result": 5.24, "unit": "nM"}]}
